Assay results from patent US8097656B2, “Nitrogenated trans-stilbene analogs, method for the obtention and medical applications thereof” (Dominion Pharmakine S.L, priority 2005, dated 2012).

Tests used:
human HSC = assay: Migration of human HSCs treated with MC-MA375 (modified Boyden chamber); assay type: cell-based; conditions: for Increase in migration of HSC induced by MC-A375 (in words): 12.5 μM 30 min prior to MC-A375; for Migration of human HSC's treated with MC-MA375 (No. cells migrated per field): 12.5 μM, 30 min before MC-MA375, 4 h, control 10.0 ± 4, treatment alone 91.5 ± 19
Excerpt: isolation of primary human cultures of hepatic sinusoidal endothelial (HSE) hepatic stellate cells (HSCs). The primary cultures of human HSE and HSC cells were obtained by non-tumoral hepatic tissue serial profusion with collagenase and pronase solutions, followed by Nycodenz gradient and seeded on 24-well plates (0.5×10^4 cells/cm^2) in DMEM. supplemented with 10% FBS.
Human HSC and HSE cell migration tests (see Table 3). Primary cultured hepatic endothelial cells (25×10^5) or hepatic stellate cells (2×10^4) were seeded in the upper compartment of modified Boyden chambers equipped with a polycarbonate filter of an 8 μm pore size. Some cells were incubated in the presence or absence of 12.5 μM of azaresveratrol, 30 minutes prior to adding conditioned tumor medium. Twenty-four (24) hours later (in the case of the endothelial cells) or 4 hours later (in the case of hepatic star cells) the number of cells having passed through the membrane was determined. The cells were fixed, were stained with hematoxylin eosine and were counted under the microscope (20×) in 5 fields per well.

MB16 cells = assay: Adhesion of IL-18-treated MB16 cells to HSE cell monolayer; assay type: cell-based, murine; conditions: for Adhesion of MB16 cells treated with IL-18 to HSE cells (% adhered cells): 2.5 μM for 30 min prior to IL-18, control 24.4 ± 4, IL-18 alone 54 ± 6.0; for Increase of the percentage of adhesion of tumor cells to the HSE in response to IL-18 (in words): 2.5 μM for 30 minutes prior to IL-18
Excerpt: Isolation of primary murine cultures of hepatic sinusoidal endothelial (HSE) cells. The hepatic sinusoidal cells were isolated from C57BL/6J mice (males, aged 6-8 weeks) supplied by IFFA Credo (L'Arbreole, France), followed by a purification and identification of the HSE cells following the protocol described by Vidal-Vanaclocha et al. (1993) [Vidal-Vanaclocha, F., Rocha, M., Asumendi, A. & Barbera-Guillem, E. Isolation and enrichment of two sublobular compartment-specific endothelial cell subpopulations from liver sinusoids. Hepatology, 1993, 18, 328-339]. Stable primary cultures of HSE cells were obtained after seeding the cells on a type I collagen substrate (Sigma Chemicals Co, St Louis, Mo.), and the cultures were maintained in DMEM-HCO^3−, penicillin (100 U/ml), streptomycin (100 μg/ml), supplemented with 10% fetal bovine serum at 37° C. with 5% CO2 in atmosphere at 98% humidity.
MB16 cell adhesion to the monolayer of HSE cells in culture. The endothelial cells were isolated 24 hours prior to the adhesion test and were seeded on 24-well plate, maintaining them a minimum of 4 hours in serum-free medium before incubating them with DMEM in the presence or not of MC-MB16 for 8 hours. The synthesized compounds (JE2:2 see FIG. 6; JEM2:2-01 and JEM2:1-02 see FIG. 8A; YEF02, YEF03, YEF07, YEF05B, YEF07B and YEF05H see FIG. 10) were added to a 2.5 μM concentration prior to the MC-MB16. On the other hand, the MB16 cells were marked with 40 μg/ml from the fluorescent probe BCECF-AM (carboxyfluorescein, 2′,7′-bis-(2-carboxy-ethyl)-5-(6)carboxyfluorescein aminoxymethyl ester) supplied by Molecular Probes Inc. (Oregon, USA). Afterward, a washing process was performed with DMEM-HCO3−—to remove the excess fluorochromium, the number of viable cells being calculated by means of the trypan blue exclusion test and resuspended to a concentration of 2×10^5 cells/ml. Lastly, 1 ml of the MB16 cell suspension was added to each well on the primary HSE cell culture plate. The co-culture plates were incubator-incubated at 37° C. for 8 minutes. The percentage of cellular adhesion was calculated by means of the a fluorescence measurement system described by Vidal-Vanaclocha et al. (1994) [Vidal-Vanaclocha, F., Amézaga, C., Asumendi, A., Kaplanski, G. & Dinarello, C. A. Interleukin-1 receptor blockade reduces the number and size of murine B16 melanoma hepatic metastases. Cancer Research, 1994, 54, 2667-2672]. In the experiments with IL-18, the MB16 cells were incubated with 10 ng/ml of IL-18 for 4 hours prior to being marked with BCECF-AM and were adhered to the HSE cell plate. The results in the figures are given as values related to the adhesion percentages of the untreated HSE cells.

Row | Compound | Increase in migration of HSC induced by MC-A375 (in words) (human HSC) | Migration of human HSC's treated with MC-MA375 (No. cells migrated per field) (human HSC) | Adhesion of MB16 cells treated with IL-18 to HSE cells (% adhered cells) (MB16 cells) | Increase of the percentage of adhesion of tumor cells to the HSE in response to IL-18 (in words) (MB16 cells)
1 | Oc1ccc(/N=C/c2cc(O)cc(O)c2)cc1 [azaresveratrol, 5-((E)-(4-Hydroxyphenylimino)methyl)benzene-1,3-diol] | abolished | 6.0 ± 1.3 No. cells migrated per field | 31 ± 4.0 % adhered cells | significantly (P<0.01) inhibited
2 | Oc1ccc(C=Cc2cc(O)cc(O)c2)cc1 [resveratrol, reference compound] | abolished | 6.5 ± 1.4 No. cells migrated per field | 30 ± 4.0 % adhered cells | significantly (P<0.01) inhibited
